Data from ChEMBL document CHEMBL5335855, “Structure-Activity Relationships of Natural C-9-Methyl-Substituted 10-Membered Lactones and Their Semisynthetic Derivatives” (J Nat Prod, 2024).
Values after ≈ are worked out from the molar mass of the structure shown. Values joined by “and” are separate entries in the source; they are usually repeats but may differ in a detail not shown here. Identical values can stand only once.

Key:
[1] = Phytotoxicity in Sonchus arvensis assessed as diameter of lesions at 2 mg/ml incubated for 120 hrs by leaf puncture assay; assay type: toxicity
Bacillus subtilis = assay: Antibacterial activity against Bacillus subtilis NCTC […] assessed as zone of inhibition at 100 ug per disc incubated for 24 hrs by agar diffusion assay; assay type: functional; details: read-out: DIZ
[2] = Cytotoxicity against Spodoptera frugiperda Sf9 cells incubated for 24 hrs by trypan blue staining based assay; assay type: toxicity, cell-based; details: read-out: LC50
[3] = Toxicity in Galleria mellonella larvae upto 420 mg/kg treated for 14 days in dark; assay type: organism-based; details: in vivo, 336 h, time 14 day
Aphididae = assay: Aphicidal activity against insects at 1 mg/ml measured after 24 hrs; assay type: functional
Paramecium caudatum = assay: Toxicity in Paramecium caudatum; assay type: organism-based; details: in vivo
[4] = Toxicity in Galleria mellonella larvae treated for 14 days in dark; details: 336 h, time 14 day
Schizaphis graminum = assay: Aphicidal activity against Schizaphis graminum at 1 mg/ml measured after 24 hrs; assay type: functional
MCF7 = assay: Cytotoxicity against human MCF7 cells measured after 24 hrs by MTT assay; assay type: functional, cell-based; details: MCF7, 24 h
[5] = Cytotoxicity against mouse LP07 cells measured after 24 hrs by MTT assay; assay type: functional, cell-based; details: LP07, 24 h
[6] = Cytotoxicity against mouse LM3 cells measured after 24 hrs by MTT assay; assay type: functional, cell-based; details: LM3, 24 h

SMILES: C[C@@H]1CCC(=O)CCCCC(=O)O1
- Activity [1]: 0 mm
- zone of inhibition at 100 µg/disc (Bacillus subtilis): 0 mm
- CC50 at 24 h [2]: > 100 µg/mL and > 540 µM
- Activity [3]: Non-Toxic

SMILES: C[C@@H]1CC[C@@H](O)[C@H](O)CCCC(=O)O1
- Activity [1]: 0 mm
- zone of inhibition at 100 µg/disc (Bacillus subtilis): 0 mm
- mortality at 1000 µg/mL (Aphididae): 33%
- Activity [3]: Non-Toxic

SMILES: C[C@H]1OC(=O)CCC(=O)C[C@H](O)[C@H]2O[C@H]21
- Activity [1]: 1.1 mm
- zone of inhibition at 100 µg/disc (Bacillus subtilis): 0 mm
- mortality at 1000 µg/mL (Aphididae): 13%
- Activity [3]: Non-Toxic

SMILES: CC(=O)O[C@@H]1CC[C@@H](C)OC(=O)/C=C\[C@@H]2O[C@H]21
- Activity [1]: 5.2 mm
- zone of inhibition at 100 µg/disc (Bacillus subtilis): 0 mm
- CC50 at 24 h [2]: > 100 µg/mL and > 420 µM
- mortality at 1000 µg/mL (Aphididae): 23%
- Activity [3]: Non-Toxic

SMILES: C[C@@H]1CC[C@@H](O)CCCCC(=O)O1
- Activity [1]: 0 mm
- zone of inhibition at 100 µg/disc (Bacillus subtilis): 0 mm
- CC50 at 24 h [2]: > 100 µg/mL and > 540 µM
- mortality at 1000 µg/mL (Aphididae): 0%
- Activity [3]: Non-Toxic

SMILES: C[C@@H]1CC[C@@H](O)[C@@H]2O[C@H]2/C=C\C(=O)O1
- Activity [1]: 5.5 mm
- zone of inhibition at 100 µg/disc (Bacillus subtilis): 0 mm
- CC50 at 24 h [2]: > 100 µg/mL and > 500 µM
- mortality at 1000 µg/mL (Aphididae): 8%
- Activity [3]: Non-Toxic

SMILES: C[C@H]1OC(=O)CC[C@H](O)/C=C/[C@H]2O[C@@H]12
- Activity [1]: 0 mm
- zone of inhibition at 100 µg/disc (Bacillus subtilis): 0 mm
- mortality at 1000 µg/mL (Aphididae): 0%
- Activity [3]: Non-Toxic

SMILES: C[C@@H]1C[C@H](O)/C=C/C(=O)/C=C\C(=O)O1
- Activity [1]: 4.3 mm
- zone of inhibition at 100 µg/disc (Bacillus subtilis): 45 mm
- CC50 at 24 h [2]: < 1 µg/mL and < 5 µM
- mortality at 1000 µg/mL (Aphididae): 10%
- Activity [3]: Non-Toxic
- Activity (Paramecium caudatum): Non-Toxic

SMILES: CC(=O)O[C@H]1/C=C/C=C\C(=O)O[C@H](C)CC1
- Activity [1]: 0 mm
- zone of inhibition at 100 µg/disc (Bacillus subtilis): 0 mm
- mortality at 1000 µg/mL (Aphididae): 55%
- LC50 [4]: 160 mg/kg

SMILES: CCC[C@H]1OC(=O)CCC/C=C/[C@H](O)[C@@H]1O [HERBARUMIN I]
- Activity [1]: 4.8 mm
- zone of inhibition at 100 µg/disc (Bacillus subtilis): 0 mm
- Activity [3]: Non-Toxic
- mortality at 1000 µg/mL (Schizaphis graminum): 54%

SMILES: C[C@@H]1C[C@H](O)/C=C/[C@@H](O)/C=C\C(=O)O1 [MODIOLIDE A]
- IC50 (MCF7): 61 µg/mL (≈ 308 µM)
- IC50 [5]: > 125 µg/mL
- IC50 [6]: 292 µg/mL (≈ 1470 µM)

SMILES: C[C@@H]1CC[C@@H](O)/C=C/C=C\C(=O)O1 [STAGONOLIDE E]
- Activity [1]: 1.7 mm
- zone of inhibition at 100 µg/disc (Bacillus subtilis): 0 mm
- mortality at 1000 µg/mL (Aphididae): 67%
- Activity [3]: Non-Toxic

SMILES: CCC[C@H]1OC(=O)CCC/C=C/C(=O)[C@@H]1O [STAGONOLIDE]
- Activity [1]: 6.4 mm
- zone of inhibition at 100 µg/disc (Bacillus subtilis): 38 mm
- CC50 at 24 h [2]: 3 µg/mL and 13 µM
- LC50 [4]: 300 mg/kg
- mortality at 1000 µg/mL (Schizaphis graminum): 15%
